Assay results from patent publication US11426397B2, “Piperidinyl- and piperazinyl-substituted heteroaromatic carboxamides as modulators of GPR6” (TAKEDA PHARMACEUTICAL COMPANY LIMITED, priority 2017, dated 2022).

The compounds below were run against T1, GPR6 receptor expressed in CHO-K1 cells (Homo sapiens, UniProt P46095) (assay: In vitro inhibition of cAMP (EC50), cell-based HTRF cAMP assay). Conditions: inhibition of constitutive cAMP activity of GPR6 in CHO-K1 cells.
T1 construct: expressed in transfected cells
T1 sequence (P46095 whole entry): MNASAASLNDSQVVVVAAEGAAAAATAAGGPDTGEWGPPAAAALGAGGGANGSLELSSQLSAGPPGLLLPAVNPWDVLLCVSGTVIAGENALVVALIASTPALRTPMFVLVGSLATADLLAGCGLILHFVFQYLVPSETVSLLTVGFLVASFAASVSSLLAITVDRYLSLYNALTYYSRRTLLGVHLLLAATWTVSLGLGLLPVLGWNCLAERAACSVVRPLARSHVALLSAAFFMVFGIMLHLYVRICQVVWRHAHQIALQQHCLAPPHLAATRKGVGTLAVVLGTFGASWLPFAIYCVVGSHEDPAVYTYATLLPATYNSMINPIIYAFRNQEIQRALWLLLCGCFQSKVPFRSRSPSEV
Procedure, shortened: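 Tetracycline-inducible CHO-K1 line, GPR6 expression induced 20 h with 2 μg/mL doxycycline. Compounds incubated 45 min at 37 °C in Ringer's buffer (pH 7.4) with 0.5% fatty acid free BSA and 300 μM IBMX. Constitutive cAMP read by Lance HTRF; EC50 from four-parameter logistic fit.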

| pEC50, in vitro inhibition of cAMP | Compound |
| --- | --- |
| 7.2 | COc1cc(Cl)ccc1C(=O)Nc1cc(C#N)ccc1N1CCC(Oc2ccc(F)cc2F)CC1 [Example 228, 4-chloro-N-(5-cyano-2-(4-(2,4-difluorophenoxy)piperidin-1-yl)phenyl)-2-methoxybenzamide] |
| 7.3 | COc1cc(F)c(F)cc1C(=O)Nc1cc(C#N)ccc1N1CCC(Oc2ccc(F)cc2F)CC1 [Example 229] |
| 7.1 | COc1cccc(C(=O)Nc2cc(C#N)ccc2N2CCC(Oc3ccc(F)cc3F)CC2)c1OC [Example 230] |
| 6.3 | COc1ccc(OC(F)(F)F)cc1C(=O)Nc1cc(C#N)ccc1N1CCC(Oc2ccc(F)cc2F)CC1 [Example 231, N-(5-cyano-2-(4-(2,4-difluorophenoxy)piperidin-1-yl)phenyl)-2-methoxy-5-(trifluoromethoxy)benzamide] |
| 6.4 | COc1c(C)cccc1C(=O)Nc1cc(C#N)ccc1N1CCC(Oc2ccc(F)cc2F)CC1 [Example 232, N-(5-cyano-2-(4-(2,4-difluorophenoxy)piperidin-1-yl)phenyl)-2-methoxy-3-methylbenzamide] |
| 6.4 | COc1c(C(=O)Nc2cc(C#N)ccc2N2CCC(Oc3ccc(F)cc3F)CC2)ccc(F)c1F [Example 233, N-(5-cyano-2-(4-(2,4-difluorophenoxy)piperidin-1-yl)phenyl)-3,4-difluoro-2-methoxybenzamide] |
| <4.5 | COc1c(Cl)cc(Cl)cc1C(=O)Nc1cc(C#N)ccc1N1CCC(Oc2ccc(F)cc2F)CC1 [Example 234, 3,5-dichloro-N-(5-cyano-2-(4-(2,4-difluorophenoxy)piperidin-1-yl)phenyl)-2-methoxybenzamide] |
| 7.1 | COc1ccc(C(=O)Nc2cc(C#N)ccc2N2CCC(Oc3ccc(F)cc3F)CC2)c(OC)c1 [Example 235, N-(5-cyano-2-(4-(2,4-difluorophenoxy)piperidin-1-yl)phenyl)-2,4-dimethoxybenzamide] |
| 7.1 | COc1cc(C)ccc1C(=O)Nc1cc(C#N)ccc1N1CCC(Oc2ccc(F)cc2F)CC1 [Example 236, N-(5-cyano-2-(4-(2,4-difluorophenoxy)piperidin-1-yl)phenyl)-2-methoxy-4-methylbenzamide] |
| 6.7 | COc1ccc(C)cc1C(=O)Nc1cc(C#N)ccc1N1CCC(Oc2ccc(F)cc2F)CC1 [Example 237, N-(5-cyano-2-(4-(2,4-difluorophenoxy)piperidin-1-yl)phenyl)-2-methoxy-5-methylbenzamide] |
| 5.0 | COc1cccc(OC)c1C(=O)Nc1cc(C#N)ccc1N1CCC(Oc2ccc(F)cc2F)CC1 [Example 238, N-(5-cyano-2-(4-(2,4-difluorophenoxy)piperidin-1-yl)phenyl)-2,6-dimethoxybenzamide] |
| 6.9 | COc1ncccc1C(=O)Nc1cc(C#N)ccc1N1CCN(Cc2ccccc2F)CC1 [Example 239, N-(5-cyano-2-(4-(2-fluorobenzyl)piperazin-1-yl)phenyl)-2-methoxynicotinamide] |
| 6.8 | COc1ncccc1C(=O)Nc1cc(C#N)ccc1N1CCN(Cc2cccc(F)c2)CC1 [Example 240, N-(5-cyano-2-(4-(3-fluorobenzyl)piperazin-1-yl)phenyl)-2-methoxynicotinamide] |
| 6.0 | COc1ncccc1C(=O)Nc1cc(C#N)ccc1N1CCN(Cc2cscn2)CC1 [Example 241, N-(5-cyano-2-(4-(thiazol-4-ylmethyl)piperazin-1-yl)phenyl)-2-methoxynicotinamide] |
| 6.8 | COc1ccc(F)c(CN2CCN(c3ccc(C#N)cc3NC(=O)c3cccnc3OC)CC2)c1 [Example 242, N-(5-cyano-2-(4-(2-fluoro-5-methoxybenzyl)piperazin-1-yl)phenyl)-2-methoxynicotinamide] |
| 6.5 | COc1ncccc1C(=O)Nc1cc(C#N)ccc1N1CCN(Cc2cccc(F)c2F)CC1 [Example 243, N-(5-cyano-2-(4-(2,3-difluorobenzyl)piperazin-1-yl)phenyl)-2-methoxynicotinamide] |
| 6.3 | COc1ncccc1C(=O)Nc1cc(C#N)ccc1N1CCN(Cc2ccc(F)cn2)CC1 [Example 244] |
| 7.0 | COc1ncccc1C(=O)Nc1cc(C#N)ccc1N1CCN(Cc2ccccc2C#N)CC1 [Example 245, N-(5-cyano-2-(4-(2-cyanobenzyl)piperazin-1-yl)phenyl)-2-methoxynicotinamide] |
| 7.1 | COc1ncccc1C(=O)Nc1cc(C#N)ccc1N1CCN(Cc2ccc(F)c(F)c2)CC1 [Example 246, N-(5-cyano-2-(4-(3,4-difluorobenzyl)piperazin-1-yl)phenyl)-2-methoxynicotinamide] |

Continued, compound first:

| Compound | pEC50, in vitro inhibition of cAMP |
| --- | --- |
| COc1ccc(F)cc1C(=O)Nc1cc(C#N)ccc1N1CCC(Oc2ccc(F)cc2F)CC1 [Example 210, N-(5-cyano-2-(4-(2,4-difluorophenoxy)piperidin-1-yl)phenyl)-5-fluoro-2-methoxybenzamide] | 7.3 |
| COc1ccc(Cl)cc1C(=O)Nc1cc(C#N)ccc1N1CCC(Oc2ccc(F)cc2F)CC1 [Example 211, 5-chloro-N-(5-cyano-2-(4-(2,4-difluorophenoxy)piperidin-1-yl)phenyl)-2-methoxybenzamide] | 6.7 |
| COc1ccc(Cl)c(OC)c1C(=O)Nc1cc(C#N)ccc1N1CCC(Oc2ccc(F)cc2F)CC1 [Example 212, 3-chloro-N-(5-cyano-2-(4-(2,4-difluorophenoxy)piperidin-1-yl)phenyl)-2,6-dimethoxybenzamide] | <4.5 |
| COc1nc(C(F)(F)F)ccc1C(=O)Nc1cc(C#N)ccc1N1CCC(Oc2ccc(F)cc2F)CC1 [Example 213] | 6.8 |
| COc1c(C)ccc(C)c1C(=O)Nc1cc(C#N)ccc1N1CCC(Oc2ccc(F)cc2F)CC1 [Example 214, N-(5-cyano-2-(4-(2,4-difluorophenoxy)piperidin-1-yl)phenyl)-2-methoxy-3,6-dimethylbenzamide] | 5.5 |
| COc1ccc(N2CCOCC2)cc1C(=O)Nc1cc(C#N)ccc1N1CCC(Oc2ccc(F)cc2F)CC1 [Example 215, N-(5-cyano-2-(4-(2,4-difluorophenoxy)piperidin-1-yl)phenyl)-2-methoxy-5-morpholinobenzamide] | 5.5 |
| COc1cc(C(C)(C)C)ccc1C(=O)Nc1cc(C#N)ccc1N1CCC(Oc2ccc(F)cc2F)CC1 [Example 216, 4-(tert-butyl)-N-(5-cyano-2-(4-(2,4-difluorophenoxy)piperidin-1-yl)phenyl)-2-methoxybenzamide] | 6.4 |
| Cc1cn2c(=O)c(C(=O)Nc3cc(C#N)ccc3N3CCC(Oc4ccc(F)cc4F)CC3)cnc2s1 [Example 217, N-(5-cyano-2-(4-(2,4-difluorophenoxy)piperidin-1-yl)phenyl)-2-methyl-5-oxo-5H-thiazolo[3,2-a]pyrimidine-6-carboxamide] | 6.7 |
| Cc1csc2ncc(C(=O)Nc3cc(C#N)ccc3N3CCC(Oc4ccc(F)cc4F)CC3)c(=O)n12 [Example 218, N-(5-cyano-2-(4-(2,4-difluorophenoxy)piperidin-1-yl)phenyl)-3-methyl-5-oxo-5H-thiazolo[3,2-a]pyrimidine-6-carboxamide] | 6.8 |
| COc1cn(-c2ccccc2)nc1C(=O)Nc1cc(C#N)ccc1N1CCC(Oc2ccc(F)cc2F)CC1 [Example 219, N-(5-cyano-2-(4-(2,4-difluorophenoxy)piperidin-1-yl)phenyl)-4-methoxy-1-phenyl-1H-pyrazole-3-carboxamide] | 6.3 |
| COc1c(C(=O)Nc2cc(C#N)ccc2N2CCC(Oc3ccc(F)cc3F)CC2)nnn1Cc1ccccc1 [Example 220, 1-benzyl-N-(5-cyano-2-(4-(2,4-difluorophenoxy)piperidin-1-yl)phenyl)-5-methoxy-1H-1,2,3-triazole-4-carboxamide] | 5.8 |
| COc1c(C(=O)Nc2cc(C#N)ccc2N2CCC(Oc3ccc(F)cc3F)CC2)nnn1Cc1ccccc1Cl [Example 221, 1-(2-chlorobenzyl)-N-(5-cyano-2-(4-(2,4-difluorophenoxy)piperidin-1-yl)phenyl)-5-methoxy-1H-1,2,3-triazole-4-carboxamide] | <4.5 |
| COc1c(Cl)cccc1C(=O)Nc1cc(C#N)ccc1N1CCC(Oc2ccc(F)cc2F)CC1 [Example 222, 3-chloro-N-(5-cyano-2-(4-(2,4-difluorophenoxy)piperidin-1-yl)phenyl)-2-methoxybenzamide] | 6.7 |
| COc1nccc(Cl)c1C(=O)Nc1cc(C#N)ccc1N1CCC(Oc2ccc(F)cc2F)CC1 [Example 223, 4-chloro-N-(5-cyano-2-(4-(2,4-difluorophenoxy)piperidin-1-yl)phenyl)-2-methoxynicotinamide] | 5.6 |
| COc1ncc(F)cc1C(=O)Nc1cc(C#N)ccc1N1CCC(Oc2ccc(F)cc2F)CC1 [Example 224, N-(5-cyano-2-(4-(2,4-difluorophenoxy)piperidin-1-yl)phenyl)-5-fluoro-2-methoxynicotinamide] | 7.3 |
| COc1ccc(Br)cc1C(=O)Nc1cc(C#N)ccc1N1CCC(Oc2ccc(F)cc2F)CC1 [Example 225, 5-bromo-N-(5-cyano-2-(4-(2,4-difluorophenoxy)piperidin-1-yl)phenyl)-2-methoxybenzamide] | 6.4 |
| COc1cc(Br)ccc1C(=O)Nc1cc(C#N)ccc1N1CCC(Oc2ccc(F)cc2F)CC1 [Example 226, 4-bromo-N-(5-cyano-2-(4-(2,4-difluorophenoxy)piperidin-1-yl)phenyl)-2-methoxybenzamide] | 7.0 |
| COc1cccc(C)c1C(=O)Nc1cc(C#N)ccc1N1CCC(Oc2ccc(F)cc2F)CC1 [Example 227, N-(5-cyano-2-(4-(2,4-difluorophenoxy)piperidin-1-yl)phenyl)-2-methoxy-6-methylbenzamide] | 5.8 |
